# Measurements from patent publication US20240391928A1, “COMPOSITIONS FOR THE TREATMENT OF FOOD AND CHEMICAL ADDICTION AND METHODS OF MAKING AND USING SAME” (Duke University, priority 2021, published 2024).
# Several values for one entry are separate records, joined by “and”; a condition that tells them apart may be missing. Equal values may be shown once.
# Experiments:
# GHSR1a^R199A = target: T1, GHSR1a^R199A (Homo sapiens, UniProt Q92847, R199A); test: Gαq dissociation and iCa2+ at R199A mutant; assay type: cell-based
# T1 construct: expressed in transfected cells; host or cells: HEK293/T
# T1 sequence (Q92847 whole entry R199A): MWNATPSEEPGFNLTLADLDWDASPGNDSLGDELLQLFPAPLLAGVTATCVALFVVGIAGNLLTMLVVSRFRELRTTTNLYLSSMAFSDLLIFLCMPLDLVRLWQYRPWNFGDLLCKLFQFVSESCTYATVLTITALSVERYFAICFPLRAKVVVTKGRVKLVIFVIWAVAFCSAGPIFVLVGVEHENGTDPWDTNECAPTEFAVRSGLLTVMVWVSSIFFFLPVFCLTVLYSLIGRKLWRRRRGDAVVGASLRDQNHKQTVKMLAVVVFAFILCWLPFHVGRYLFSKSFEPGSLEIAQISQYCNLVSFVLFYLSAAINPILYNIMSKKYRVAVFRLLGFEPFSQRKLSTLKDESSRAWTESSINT
# Description: For experiments with WT and Gt KO HEK293/S cells, […] of hGHSR1a^WT, 10 μg of miAEQ, and 2.5 μg of pcDNA3.1 was transiently transfected into 10 cm dishes and incubated overnight. […] Twenty-four hours later, experiments proceeded in accordance with the procedures described above. To control for any possible kinetic differences in genetically modified cell lines or GHSR1a variants, the average ligand-induced response over 10 seconds was calculated, then normalized by dividing the L-miAeq by the L-miAeq plus the Lysis-miAeq and normalized to the appropriate control/reference condition.
# GHSR1a = GHSR1a (Homo sapiens, UniProt Q92847); test: Bias factor, intrinsic relative activities (RAi) model, Gαq vs β-arr2; set-up: expressed in transfected cells; host or cells: HEK293/T and HEK293/N (the source assays)
# Sequence of GHSR1a (Q92847 whole entry): as the sequence (Q92847 whole entry R199A) above, with A199R counted along it
# Source text: To quantitatively assess N8279 bias between the Gαq and β-arr2 (FIG. 2A) pathways, the intrinsic relative activities (RAi) model was used. […] Ultimately, these analyses together supported that N8279 was a G protein-biased agonist of both proximal and downstream GHSR1a-Gαq signaling.
smiles,measurement,setting,value
"COc1ccc(C(=O)c2c(C(=O)NCCCN(C)C)oc3ccc(Cl)cc3c2=O)cc1OC [Example N8279, 6-Chloro-3-(3,4-dimethoxybenzoyl)-N-(3-(dimethylamino)propyl)-4-oxo-4H-chromene-2-carboxamide]",potency at GHSR1a^R199A in words,GHSR1a^R199A,did not affect
same,downstream bias,GHSR1a; reference L585,~14 fold
same,downstream bias factor (β),GHSR1a; reference L585,1.15
same,proximal bias,GHSR1a; reference L585,~28 fold
same,proximal bias factor (β),GHSR1a; reference L585,1.45
same,"assay-standardized proximal bias factor (β), BRET-Gαq/BRET-β-arr2",GHSR1a; reference ghrelin,1.16±0.11 and 1.16
same,"assay-standardized proximal bias factor (β), NanoBiT-Gαq/NanoBiT-β-arr2",GHSR1a; reference ghrelin,1.36±0.33 and 1.36
same,"assay-standardized proximal bias, BRET-Gαq/BRET-β-arr2",GHSR1a; reference ghrelin,~14 fold
same,"assay-standardized proximal bias, NanoBiT-Gαq/NanoBiT-β-arr2",GHSR1a; reference ghrelin,~23 fold
same,"downstream bias factor (β), iCa2+ vs NanoBiT β-arr2",GHSR1a; reference ghrelin,2.63
same,"downstream bias, iCa2+ vs NanoBiT β-arr2",GHSR1a; reference ghrelin,~427 fold
same,"proximal bias factor (β), Gαq dissociation vs NanoBiT β-arr2",GHSR1a; reference ghrelin,0.59
same,"proximal bias, Gαq dissociation vs NanoBiT β-arr2",GHSR1a; reference ghrelin,~4 fold
